# Assay results from PubChem BioAssay (NCI).
#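 Five compound concentrations were applied to cells in 96-well plates for 48 hours; endpoints were derived by simple linear interpolation of the resulting dose-response curve. The concentration for 50% growth inhibition is given as GI50. Definition used: TGI = concentration required for complete inhibition of growth.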
# Legend:
# Assay in all cases: inhibition of tumour cell growth, NCI panel, 48 h
# [1] = system: MDA-MB-435
# [2] = system: HOP-62 NSCLC
# [3] = system: IGROV1 ovarian
# [4] = system: T-47D breast
# [5] = system: ACHN renal
# [6] = system: K-562 leukemia
# [7] = system: KM12 colon
# [8] = system: HS 578T breast
# [9] = system: SK-MEL-28 melanoma
# [10] = system: SK-MEL-5 melanoma
# [11] = system: HCT-116 colon
# [12] = system: SF-268 CNS
# [13] = system: MDA-MB-468 breast
# [14] = system: SN12C renal
# [15] = system: UACC-62 melanoma
# [16] = system: SW-620 colon
# [17] = system: SNB-19 CNS
# [18] = system: HL-60(TB) leukemia
# [19] = system: LOX IMVI melanoma
# [20] = system: U251 CNS
# [21] = system: HT29 colon
# [22] = system: MALME-3M melanoma
# [23] = system: SF-295 CNS
# [24] = system: A549 NSCLC
# [25] = system: TK-10 renal
# [26] = system: UO-31 renal
# [27] = system: OVCAR-8 ovarian
# [28] = system: OVCAR-3 ovarian
# [29] = system: RPMI-8226 leukemia
# [30] = system: EKVX NSCLC
# [31] = system: CCRF-CEM leukemia
# [32] = system: OVCAR-4 ovarian
# [33] = system: CAKI-1 renal
# [34] = system: COLO 205 colon
# [35] = system: 786-0 renal
# [36] = system: SNB-75 CNS
# [37] = system: PC-3 prostate
# [38] = system: NCI-H23 lung
# [39] = system: SK-MEL-2 melanoma
# [40] = system: OVCAR-5 ovarian
# [41] = system: NCI-H522 lung
# [42] = system: HOP-92 NSCLC
# [43] = system: BT-549 breast
# [44] = system: UACC-257 melanoma
# [45] = system: SF-539 CNS
# [46] = system: MDA-MB-231 breast
# [47] = system: MCF7 breast
# [48] = system: SR leukemia
# [49] = system: HCC-2998 colon
# [50] = system: RXF 393 renal
# [51] = system: M14 melanoma
# [52] = system: A498 renal
# [53] = system: NCI/ADR-RES ovarian
# [54] = system: NCI-H226 lung
# [55] = system: DU-145 prostate
# [56] = system: NCI-H460 lung
# [57] = system: SK-OV-3 ovarian
# [58] = system: MOLT-4 leukemia
# [59] = system: HCT-15 colon
smiles,measurement,setting,value
S=C(NCCc1ccccc1)Nc1ccc(OCc2nc3ccc(Cl)cc3[nH]2)cc1,GI50,[1],4360 nM
same,TGI,[1],17.6 µM
same,GI50,[2],14 µM
same,TGI,[2],28.7 µM
same,GI50,[3],6.26 µM
same,TGI,[3],19.9 µM
same,GI50,[4],5.61 µM
same,TGI,[4],25.3 µM
same,GI50,[5],7.74 µM
same,TGI,[5],20.4 µM
same,GI50,[6],3040 nM
same,TGI,[6],20 µM
same,GI50,[7],10.5 µM
same,TGI,[7],23.6 µM
same,GI50,[8],8.41 µM
same,TGI,[8],31.9 µM
same,GI50,[9],12.6 µM
same,TGI,[9],25.3 µM
same,GI50,[10],12.7 µM
same,TGI,[10],25.7 µM
same,GI50,[11],4650 nM
same,TGI,[11],17.6 µM
same,GI50,[12],11.1 µM
same,TGI,[12],27.1 µM
same,GI50,[13],3780 nM
same,TGI,[13],17.4 µM
same,GI50,[14],6.28 µM
same,TGI,[14],20.1 µM
same,GI50,[15],7.94 µM
same,TGI,[15],20.8 µM
same,GI50,[16],9.72 µM
same,TGI,[16],22.7 µM
same,GI50,[17],11.6 µM
same,TGI,[17],23.8 µM
same,GI50,[18],1260 nM
same,TGI,[18],4.35 µM
same,GI50,[19],4020 nM
same,TGI,[19],16.1 µM
same,GI50,[20],13.1 µM
same,TGI,[20],27.1 µM
same,GI50,[21],9.67 µM
same,TGI,[21],24.4 µM
same,GI50,[22],12.5 µM
same,TGI,[22],25.2 µM
same,GI50,[23],7.08 µM
same,TGI,[23],21.7 µM
same,GI50,[24],12.6 µM
same,TGI,[24],31.5 µM
same,GI50,[25],13.8 µM
same,TGI,[25],27.3 µM
same,GI50,[26],3370 nM
same,TGI,[26],16 µM
same,GI50,[27],11.9 µM
same,TGI,[27],30.4 µM
same,GI50,[28],3510 nM
same,TGI,[28],17.1 µM
same,GI50,[29],4540 nM
same,TGI,[29],45.5 µM
same,GI50,[30],7.97 µM
same,TGI,[30],21.2 µM
same,GI50,[31],3060 nM
same,TGI,[31],14.8 µM
same,GI50,[32],7 µM
same,TGI,[32],23.9 µM
same,GI50,[33],4320 nM
same,TGI,[33],17.7 µM
same,GI50,[34],12.4 µM
same,TGI,[34],28 µM
same,GI50,[35],7.67 µM
same,TGI,[35],21.4 µM
same,GI50,[36],1630 nM
same,TGI,[36],14.9 µM
same,GI50,[37],6.8 µM
same,TGI,[37],22.9 µM
same,GI50,[38],10.9 µM
same,TGI,[38],23.7 µM
same,GI50,[39],13.1 µM
same,TGI,[39],26.2 µM
same,GI50,[40],11.5 µM
same,TGI,[40],23.6 µM
same,GI50,[41],2220 nM
same,TGI,[41],7.02 µM
same,GI50,[42],3520 nM
same,TGI,[42],17 µM
same,GI50,[43],10.4 µM
same,TGI,[43],22.5 µM
same,GI50,[44],13.7 µM
same,TGI,[44],27.4 µM
same,GI50,[45],8.77 µM
same,TGI,[45],20.9 µM
same,GI50,[46],5.75 µM
same,TGI,[46],19.4 µM
same,GI50,[47],3140 nM
same,TGI,[47],15.5 µM
same,GI50,[48],2200 nM
same,TGI,[48],6.99 µM
same,GI50,[49],6.1 µM
same,TGI,[49],20.4 µM
same,GI50,[50],4070 nM
same,TGI,[50],17.1 µM
same,GI50,[51],9.53 µM
same,TGI,[51],22 µM
same,GI50,[52],10.4 µM
same,TGI,[52],22.7 µM
same,GI50,[53],7.15 µM
same,TGI,[53],25.5 µM
same,GI50,[54],12.9 µM
same,TGI,[54],35.5 µM
same,GI50,[55],12 µM
same,TGI,[55],25 µM
same,GI50,[56],4310 nM
same,TGI,[56],17.3 µM
same,GI50,[57],14.2 µM
same,TGI,[57],27.9 µM
same,GI50,[58],2460 nM
same,TGI,[58],7.51 µM
same,GI50,[59],4900 nM
same,TGI,[59],18 µM
CC(=O)N1CCN(Cc2ccc3c(NNC(=O)c4cnccn4)nc4cc(F)ccc4n23)CC1,GI50,[1],1510 nM
same,TGI,[1],> 100 µM
same,GI50,[2],0.41 µM
same,TGI,[2],23.6 µM
same,GI50,[3],0.784 µM
same,TGI,[3],> 52.9 µM
same,GI50,[4],1.7 µM
same,TGI,[4],36.8 µM
same,GI50,[5],0.311 µM
same,TGI,[5],12.3 µM
same,GI50,[6],753 nM
same,TGI,[6],33.5 µM
same,GI50,[7],0.537 µM
same,TGI,[7],> 81.3 µM
same,GI50,[8],13.2 µM
same,TGI,[8],> 100 µM
same,GI50,[9],0.624 µM
same,TGI,[9],31.6 µM
same,GI50,[10],0.605 µM
same,TGI,[10],4.98 µM
same,GI50,[11],309 nM
same,TGI,[11],18.8 µM
same,GI50,[12],0.609 µM
same,TGI,[12],> 100 µM
same,GI50,[13],525 nM
same,TGI,[13],3.39 µM
same,GI50,[14],0.864 µM
same,TGI,[14],> 100 µM
same,GI50,[15],0.435 µM
same,TGI,[15],2.21 µM
same,GI50,[16],0.633 µM
same,TGI,[16],> 63 µM
same,GI50,[17],1.2 µM
same,TGI,[17],> 100 µM
same,GI50,[18],461 nM
same,TGI,[18],4.54 µM
same,GI50,[19],371 nM
same,TGI,[19],3.09 µM
same,GI50,[20],0.505 µM
same,TGI,[20],48.7 µM
same,GI50,[21],0.501 µM
same,TGI,[21],21 µM
same,GI50,[22],1.22 µM
same,TGI,[22],10.9 µM
same,GI50,[23],0.29 µM
same,TGI,[23],29.9 µM
same,GI50,[24],0.596 µM
same,TGI,[24],17.5 µM
same,GI50,[25],0.304 µM
same,TGI,[25],45.7 µM
same,GI50,[26],163 nM
same,TGI,[26],7.66 µM
same,GI50,[27],0.454 µM
same,TGI,[27],> 34.1 µM
same,GI50,[28],724 nM
same,TGI,[28],30.5 µM
same,GI50,[29],823 nM
same,TGI,[29],> 39.7 µM
same,GI50,[30],0.312 µM
same,TGI,[30],10.3 µM
same,GI50,[31],374 nM
same,TGI,[31],10.6 µM
same,GI50,[32],0.64 µM
same,TGI,[32],41.7 µM
same,GI50,[33],477 nM
same,TGI,[33],18.8 µM
same,GI50,[34],0.436 µM
same,TGI,[34],11.4 µM
same,GI50,[35],0.342 µM
same,TGI,[35],6.55 µM
same,GI50,[36],1390 nM
same,TGI,[36],99.3 µM
same,GI50,[37],0.525 µM
same,TGI,[37],> 52.4 µM
same,GI50,[38],0.909 µM
same,TGI,[38],13.2 µM
same,GI50,[39],1.28 µM
same,TGI,[39],11.4 µM
same,GI50,[40],1.09 µM
same,TGI,[40],24.4 µM
same,GI50,[41],1260 nM
same,TGI,[41],15.7 µM
same,GI50,[42],331 nM
same,TGI,[42],14.6 µM
same,GI50,[43],0.995 µM
same,TGI,[43],19.6 µM
same,GI50,[44],1.68 µM
same,TGI,[44],10.5 µM
same,GI50,[45],0.787 µM
same,TGI,[45],6.04 µM
same,GI50,[46],0.736 µM
same,TGI,[46],25.2 µM
same,GI50,[47],898 nM
same,TGI,[47],31.2 µM
same,GI50,[48],389 nM
same,TGI,[48],10.7 µM
same,GI50,[49],0.96 µM
same,TGI,[49],19 µM
same,GI50,[50],1450 nM
same,TGI,[50],12.4 µM
same,GI50,[51],0.333 µM
same,TGI,[51],2.24 µM
same,GI50,[52],22.7 µM
same,TGI,[52],37.8 µM
same,GI50,[53],1.17 µM
same,TGI,[53],12.3 µM
same,GI50,[54],0.742 µM
same,TGI,[54],11.2 µM
same,GI50,[55],0.873 µM
same,TGI,[55],> 100 µM
same,GI50,[56],408 nM
same,TGI,[56],> 36 µM
same,GI50,[57],0.492 µM
same,TGI,[57],13.7 µM
same,GI50,[58],387 nM
same,TGI,[58],15.5 µM
same,GI50,[59],197 nM
same,TGI,[59],19 µM
